The assay deals with M. tuberculosis H37Rv growth inhibition, 7H9 media. Briefly: M. tuberculosis growth inhibition, HTS (AID 449762).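 As to all read-outs here: bacterial growth assessed after seven days of incubation.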 Particulars: for IC90: measured here: IC90 growth inhibition.

Inconclusive results are not listed. Where only a bound is given, the exact number is not on record here.

A word on the IC50: it is the concentration that gives 50% inhibition. The term IC90 denotes the concentration at which the effect reaches the 90% level.

As for `CSc1nc2nc3c(c(=O)n2[nH]1)CCCC3`, the half-maximal inhibitory concentration (IC50) was 20.5 µM and the concentration for an effect of 90% (IC90) was over 100 µM. For `CN1C(=O)N(C)c2ccc(C=O)c3cccc1c23` the same measures were 41 µM and 57.2 µM.

For the molecule `NC1=NC2(CCC(c3ccccc3)CC2)n2c(nc3ccccc32)N1` (stereo unspecified), the IC50 was 28.6 µM and the IC90 amounted to 38.3 µM.

Take `O=C(/C(=C/c1ccc(Cl)cc1)c1nc2ccccc2[nH]1)c1cccs1`: the concentration for half-maximal inhibition (IC50) is 21.2 µM and the concentration for an effect of 90% (IC90) amounted to 42.7 µM. For `CSc1nsc(SCC(=O)Nc2ccc(F)cc2F)n1`, the concentration for half-maximal inhibition (IC50) was 19.8 µM and the IC90 turned out to be 63.4 µM. As for `CNc1nc(-c2ccccn2)nnc1-c1ccccc1`, the IC50 was 12.1 µM and the IC90 was determined as 19 µM.

For `Cc1cc(C(=O)N/N=C\C(Br)=C\c2ccccc2)c(C)o1`, the IC50 is 38.5 µM and the IC90 was 53.8 µM. For `Cc1ccc(NC(=O)C2=C(O)CCn3c2nc2ccccc23)cc1` the same measures were 1.21 µM and 20.6 µM.

In the case of `COc1ccc(CNc2ncnc3c2[nH]c2cc(OC)c(OC)cc23)cc1`, the half-inhibitory concentration (IC50) is 5.2 µM and the IC90 amounted to 14.9 µM. As to `Cc1nn(-c2ccccc2)c(C)c1/C=N/NC(=O)c1cc(-c2cccc3ccccc23)n[nH]1`, the IC50 is 29 µM and the 90% effect concentration (IC90) was over 100 µM. For `CCOC(=O)N1CCc2c(sc(NC(=O)c3ccc(Cl)s3)c2C(N)=O)C1` the same measures were 6.17 µM and 20.5 µM. Turning to `Cc1cc(NC(=O)c2sccc2C)n(-c2nc3ccccc3[nH]2)n1`, the 50% inhibitory concentration (IC50) was 2.94 µM and the concentration for an effect of 90% (IC90) is over 100 µM. For `Nc1nnnn1/N=C/C(Br)=C/c1ccccc1`, in that order: 1.08 µM and 8.66 µM. For `Oc1ccc2ccccc2c1N=Nc1nccs1`, the 50% inhibitory concentration (IC50) is under 0.2 µM and the IC90 worked out at 2.01 µM.

Take `CCCSc1nnc(Sc2nnnn2-c2ccccc2)s1`: the IC50 was 10.2 µM and the concentration for an effect of 90% (IC90) turned out to be 33 µM. Take `c1ccc2sc(Sc3ncnc4sccc34)nc2c1`: the 50% inhibitory concentration (IC50) is 3.36 µM and the IC90 amounted to 6.95 µM. For `CCCc1ccc(NC(=O)C2CCN(c3cnccn3)CC2)cc1`, in that order: 53.9 µM and 78.7 µM. As to `COc1ccccc1-c1cc(C(=O)NC2CCN(C)CC2)c2ccc(Cl)c(C)c2n1`, the IC50 was 70.9 µM and the IC90 stood at 95 µM.

For the molecule `Cc1nn(Cc2ccccc2)c(C)c1NC(=O)c1cc2nc(-c3ccco3)cc(C(F)(F)F)n2n1`, the half-inhibitory concentration (IC50) is 46.5 µM and the IC90 is over 100 µM. Regarding `Cc1ccc(Cn2c(C(CO)Nc3nc(-c4ccc(F)cc4)cs3)nc3ccccc32)cc1` (stereo unspecified), the concentration for half-maximal inhibition (IC50) is 42.1 µM and the concentration for an effect of 90% (IC90) came out at 60.2 µM. Take `CC(=O)/C=C(\C)Nc1ccccc1O`: the concentration for half-maximal inhibition (IC50) was 3.57 µM and the IC90 came out at 6.18 µM. For `Cn1ccc(=Nc2ccc(NC(=O)c3ccc(N=c4ccn(C)c5ccc([N+](=O)[O-])cc45)cc3)cc2)cc1`, in that order: under 0.2 µM and under 0.2 µM. For the molecule `Cc1[nH]c2ccc(OC(F)(F)F)cc2c1CCNCc1ccc(Cl)cc1`, the IC50 was 10.9 µM and the IC90 came out at 19 µM. For `COc1ccc(C2CC(c3cccs3)=Nc3ccccc3S2)cc1` (stereo unspecified) the same measures were 30.1 µM and 44 µM. Take `COc1ccc(NS(=O)(=O)c2ccc3nc(COc4cccc5ccccc45)[nH]c3c2)cc1`: the half-inhibitory concentration (IC50) was 63.2 µM and the IC90 is over 100 µM. For `COc1cc2ccccc2cc1C(=O)Nc1ccc(Cc2ccncc2)cc1`, in that order: 2.26 µM and 16.8 µM. In the case of `Cc1ccnc(NC(=O)c2cc3ccccc3o2)c1`, the IC50 is 43.9 µM and the concentration for an effect of 90% (IC90) was over 100 µM. For `CCc1c(C)sc(NC(=S)N2CCN(CC)CC2)c1C(=O)OC` the same measures were 12.7 µM and over 100 µM. For `Oc1ccccc1/C=N/Nc1ccnc(SCc2ccccc2)n1`, in that order: 1.43 µM and 1.55 µM.

Consider `CCN(CC)CCNC(=O)c1ccc(NC(=O)c2cn(-c3ccccc3)nc2-c2cccs2)cc1`, for which the IC50 is 19 µM and the IC90 was found to be 27.1 µM. For `COC(=O)c1cc(Sc2cccc(Cl)c2Cl)ccn1`, in that order: 20.6 µM and 30.7 µM. For `O=C(c1ccc(Br)cc1)C(CN1CCOCC1)c1ccccc1` (stereo unspecified) the same measures were 4.73 µM and 9.41 µM.

As to `Cc1nn(-c2ccccc2)c(N2CCCC2)c1/C=N/Nc1ccc(S(N)(=O)=O)cc1[N+](=O)[O-]`, the IC90 is over 100 µM.

For the molecule `Cc1cc(C)c(C(N)=O)c(SCC(=O)c2ccc(Cl)cc2)n1`, the half-maximal inhibitory concentration (IC50) is 35.3 µM and the IC90 amounted to 63.1 µM. For `Cc1ccc(C2C3=C(CC(C)(C)CC3=O)N=C3c4ccccc4C(=O)C32)cc1` (stereo unspecified) the same measures were 66.4 µM and 90.7 µM.

In the case of `Cn1c(CNc2ccccc2O)nc2ccccc21`, the half-inhibitory concentration (IC50) was 3.01 µM and the concentration for an effect of 90% (IC90) worked out at 3.52 µM. For `C=CCNC(=S)N/N=C(\C)c1ccccn1`, in that order: 7.07 µM and 17.7 µM. For `Cc1cc2nc(C3CCN(CC4COc5ccccc5O4)CC3)[nH]c2cc1C` (stereo unspecified), the IC50 is 15.5 µM and the 90% effect concentration (IC90) was 25.4 µM. For `CCOc1cccc(C=Nc2cc(C)cc(C)c2O)c1O`, in that order: 13.6 µM and 29.2 µM. For `N=C1C(c2nc3ccccc3[nH]2)=C(O)CN1NC(=O)c1c[nH]c2ccccc12` the same measures were 13.5 µM and 30.7 µM.

Take `Cc1cc(C)c2ccc(NN)nc2c1O`: the concentration for half-maximal inhibition (IC50) is 3.6 µM and the concentration for an effect of 90% (IC90) amounted to 4.95 µM.

Consider `N#C/C(=C\c1ccc(-c2ccc(Br)cc2)o1)C(=O)NCCc1c[nH]c2ccccc12`, for which the 50% inhibitory concentration (IC50) is 96.1 µM and the IC90 was over 100 µM. For `CC12CCC(=O)N1C(C(=O)Nc1ccc(SC(F)F)cc1)CS2` (stereo unspecified) the same measures were 30.2 µM and 63.1 µM. For `O=C1C(Cl)=C(N2CCOCC2)C(=O)N1c1cccc(Cl)c1` the same measures were 3.48 µM and 7.3 µM. `Cc1ccc(/C=C/C(=O)N2CC(C)CC(C)C2)o1` (stereo unspecified): the IC50 was 8.06 µM and the concentration for an effect of 90% (IC90) is 22.1 µM.

`Nc1ccc2c(c1)oc1ccccc12`: the IC90 was over 100 µM. Consider `CN1CCN(C2=Cc3ccc(Cl)cc3Sc3ccc(F)cc32)CC1`, for which the IC50 was 22.7 µM and the IC90 turned out to be 32.9 µM. For `COc1ccc(C(CCNCc2ccc(OC(C)C)cc2)C(C)C)cc1` (stereo unspecified), in that order: 23.3 µM and 26.9 µM. On to `Cc1nc([N+](=O)[O-])c(Br)n1CC(=O)c1ccc2ccccc2c1`, for which the IC50 is 2.15 µM and the IC90 was found to be 11.9 µM. As for `Brc1cccc2sc(N3CCN(c4ccccc4)CC3)nc12`, the IC50 was 44.5 µM and the IC90 is over 100 µM. In the case of `COc1ccc(OCCCC(=O)OC(C)C(=O)Nc2ccccc2[N+](=O)[O-])cc1` (stereo unspecified), the IC50 was 15.4 µM and the IC90 was over 100 µM. For `CCN(CCNCC(O)COc1ccccc1C(C)C)c1cccc(C)c1` (stereo unspecified) the same measures were 21.1 µM and 28.1 µM. For `CC/C(=C(\c1ccc(O)cc1)c1ccc(OCCN(C)C)cc1)c1ccccc1`, in that order: 22.5 µM and 35.4 µM. For `CCOC(=O)CNc1ccc(C(=O)OCC)cc1[N+](=O)[O-]`, in that order: 8.45 µM and 22.6 µM.
